# Several values for one entry are separate records, joined by “and”; a condition that tells them apart may be missing. Equal entries are not always repeated.
# Tests used:
# [1] = molecular target: GST (Schistosoma japonicum, UniProt P08515); test: ITC control, GST alone with c-di-GMP; format: binding
# [2] = molecular target: P. aeruginosa PA3740 (AAG07127); settings: cited from earlier work
# [3] = molecular target: D. geothermalis PilB_3 (ABF44566 301-475); test: ITC titration of D. geothermalis PilB_3 with c-di-GMP; format: binding, Deinococcus geothermalis; settings: ABF44566_III, ND = not detectable
# [4] = molecular target: T1, D. geothermalis PilB_2 (ABF44566 151-300) (Deinococcus geothermalis, UniProt Q1J1R8); test: ITC titration of D. geothermalis PilB_2 with c-di-GMP; format: binding
# T1 sequence (Q1J1R8 151-300): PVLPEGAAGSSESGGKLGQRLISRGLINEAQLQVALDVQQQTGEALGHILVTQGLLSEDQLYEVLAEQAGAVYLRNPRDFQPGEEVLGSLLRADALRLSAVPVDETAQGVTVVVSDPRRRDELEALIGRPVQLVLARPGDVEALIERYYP
# [5] = molecular target: T2, Moorella thermoacetica GspE (ABC19863 1-141) (Neomoorella thermoacetica, UniProt A0AAC9HIF0); test: ITC titration of Moorella thermoacetica GspE MshEN with c-di-GMP; format: binding
# T2 sequence (A0AAC9HIF0 1-141): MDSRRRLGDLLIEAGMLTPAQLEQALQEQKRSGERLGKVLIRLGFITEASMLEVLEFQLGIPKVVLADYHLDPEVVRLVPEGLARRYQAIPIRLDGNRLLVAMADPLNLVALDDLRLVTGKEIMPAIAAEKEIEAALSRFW
# [6] = molecular target: VcMshEN1-145 (wild type) (Vibrio cholerae, UniProt Q9KUV7); test: biochemical; format: binding
# [7] = tested on: full-length MshE protein (ATPase); settings: cited from earlier work
# [8] = molecular target: MshEN analogues, diverse bacterial proteins with the c-di-GMP-binding motif; settings: read-out: binding constants
# [9] = molecular target: Aeromonas veronii CheA (EKB11881 261-390); format: binding; settings: read-out: Dissociation constant (KD)
# [10] = molecular target: VcMshEN G40I (Vibrio cholerae, UniProt Q9KUV7, G40I); format: binding
# [11] = tested on: VcMshEN wild type; format: binding, Vibrio cholerae
# [12] = molecular target: V. cholerae MshEN_N1-65 (Vibrio cholerae, UniProt Q9KUV7); test: biochemical; format: binding
molecule,measurement,setting,value
"Nc1nc2c(ncn2[C@@H]2O[C@@H]3CO[P@](=O)(O)O[C@H]4[C@@H](O)[C@H](n5cnc6c(=O)[nH]c(N)nc65)O[C@@H]4CO[P@](=O)(O)O[C@H]3[C@H]2O)c(=O)[nH]1 [c-di-GMP, Cyclic dimeric GMP]",c-di-GMP binding,[1],no c-di-GMP binding
same,Kd,[2],~30 nM
same,Dissociation constant (KD),[3],completely lost it binding affinity
same,Ligand/protein ratio,[4],1.01
same,Kd,"[4]; KD, middle domain of PilB (ABF44566)",14 nM and 13.5 nM
same,Ligand/protein ratio,[5],1.01
same,Kd,[5]; read-out: Dissociation constant (KD),460 nM
same,Kd,[6],500 nM
same,Stimulation of ATPase activity by external c-di-GMP,[7],< 10%
same,Kd,[8],~500 nM
same,Kd,[9],2600 nM
same,Fold change of KD,[10],72.0
same,"Melting temperature Tm, + c-di-GMP",[11],71 ºC
same,Melting temperature increase,[11],9 º
same,Tm Difference (+ c-di-GMP minus absence),[11],10 ºC
same,Kd,[12],350 nM
same,Ligand/protein ratio,[12],0.99
c-di-AMP,Dissociation constant (KD),[6],non-detectable
same,KD,[6],non-detectable
cGMP,Binding to the MshEN domain,[11],cannot bind

# Reference: publication PMC5013675, “Nucleotide binding by the widespread high-affinity cyclic di-GMP receptor MshEN domain” (Nature Communications, 2016)
